Experimental findings from publication PMC12024234, “Antioxidant, Anti-Inflammatory, and Oral Bioavailability of Novel Sulfonamide Derivatives of Gallic Acid” (Antioxidants, 2025) are described below.

Data set [1] can be described thus: Ferric reducing antioxidant power (FRAP) assay. The settings on record: compared to GA. As for the experimental part: The FRAP assay was conducted following an adapted procedure based on the method described by Benzie (1996). The FRAP reagent was prepared fresh and warmed to 25 °C before use. The reagent was made by combining 2.5 mL of a 10 mM TPTZ solution in 40 mM hydrochloric acid, 2.5 mL of a 20 mM FeCl3·6H2O solution, and 25 mL of a 0.3 M sodium acetate buffer adjusted to pH 3.6. For the assay, 100 μL of each sample was mixed with 3 mL of the freshly prepared FRAP reagent and incubated for 4 min. After incubation, the absorbance was recorded at 593 nm using a UV-VIS spectrophotometer, with methanol serving as the blank. A standard calibration curve was generated using ascorbic acid solutions at concentrations of 100, 200, 400, 800, and 1000 μM (R^2 = 0.998). The FRAP values were calculated as μM of ascorbic acid equivalents based on the standard curve. The results presented are the mean of three independent experiments.

Data set [2] deals with T1, COX-2 (Homo sapiens, UniProt P35354).
T1 construct: endogenous in cells; host or cells: HIEC-6 cell lysate
T1 sequence (P35354 18-604): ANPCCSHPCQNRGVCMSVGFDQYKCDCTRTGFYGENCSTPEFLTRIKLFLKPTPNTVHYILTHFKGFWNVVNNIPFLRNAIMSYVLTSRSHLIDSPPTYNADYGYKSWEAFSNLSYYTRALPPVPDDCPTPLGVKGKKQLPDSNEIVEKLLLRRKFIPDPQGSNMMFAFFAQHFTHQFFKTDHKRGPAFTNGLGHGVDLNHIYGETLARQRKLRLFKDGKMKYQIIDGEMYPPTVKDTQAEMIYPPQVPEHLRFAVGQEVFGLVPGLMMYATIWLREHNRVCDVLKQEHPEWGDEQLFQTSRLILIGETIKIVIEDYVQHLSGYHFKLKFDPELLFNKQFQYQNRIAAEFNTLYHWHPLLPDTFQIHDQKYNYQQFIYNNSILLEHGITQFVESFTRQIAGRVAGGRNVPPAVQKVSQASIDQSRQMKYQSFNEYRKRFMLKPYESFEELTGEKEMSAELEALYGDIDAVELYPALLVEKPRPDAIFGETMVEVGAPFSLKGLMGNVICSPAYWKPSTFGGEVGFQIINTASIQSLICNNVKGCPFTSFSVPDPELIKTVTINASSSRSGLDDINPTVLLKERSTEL
The data set can be described thus: Cyclooxygenase (COX-2) activity assay in HIEC-6 cell lysate. It is filed as biochemical. As for the experimental part: Cyclooxygenase (COX-2) activity assay was performed in HIEC-6 cells according to the manufacturer’s instructions (ab204699). Resorufin standards (0–20 pmol/well) were used to generate a calibration curve for quantifying sample concentrations. HIEC-6 cells were centrifuged at 500× g for 3 min and washed with PBS. The cell pellet was lysed in an ice-cold lysis buffer containing 10% Triton X-100 and a protease inhibitor cocktail in PBS for 5 min. The lysate was then centrifuged at 12,000× g for 3 min at 4 °C, and the supernatant was collected and kept on ice. Protein concentration in the supernatant was determined using a Bradford assay, with a bovine serum albumin standard curve (0–2000 µg/mL). […] This mixture was added to a 96-well plate, and the reaction was initiated by adding arachidonic acid (COX-2 substrate) dissolved in NaOH solution. The enzymatic reaction produced fluorescent resorufin dye, which was measured at excitation/emission wavelengths of λEx/Em = 535/587 nm.

Data set [3] addresses Bovine Serum Albumin (BSA) (Bos taurus, UniProt P02769). The data set can be described thus: Protein denaturation assay. The settings on record: at 100 nM and higher concentrations (range 1–1000 nM). It is filed as biochemical. As for the experimental part: The anti-inflammatory potential of the compounds was evaluated using a protein denaturation assay, a well-established method to assess the capacity of test substances to inhibit protein denaturation, a key marker of inflammation. […] After heating, the samples were allowed to cool to room temperature, and the turbidity of the solutions, indicative of protein precipitation, was measured spectrophotometrically at 660 nm. A reduction in turbidity corresponds to the inhibition of protein denaturation, reflecting the anti-inflammatory activity of the tested compounds.

A short description of data set [4]: DPPH assay on supernatant after CYP2D6 metabolism. As for the experimental part:
The antioxidant properties of the compounds under study were examined using the 2,2-Diphenyl-1-picrylhydrazyl (DPPH) assay, following a well-established protocol. A DPPH solution was prepared at a concentration of 0.1 mM in methanol. […] To ensure proper reaction, the mixtures were kept in the dark and incubated at room temperature for 30 min. After incubation, the absorbance of each sample was measured at 517 nm using a UV-VIS spectrophotometer. Gallic acid was used as the reference standard, and methanol served as the blank control.
To further assess the scavenging activity of 3,4,5-TMBS metabolites, an antioxidant assay was conducted after 3 and 4 h following the metabolism. After both 3 h and 4 h reaction periods, the enzyme was separated, and the resulting supernatant was utilized for the DPPH assay. Findings regarding the antioxidant activity of 3,4,5-TMBS, post-metabolism, at these time points, in comparison to GA and 3,4,5-THBS at the same concentration, are illustrated in Figure 9.
A general note: DPPH is a stable violet radical that fades when it is reduced.

Data set [5] has as its target T2, CYP2D6 (Homo sapiens, UniProt P10635).
T2 construct: purchased Sigma Aldrich C4982
The data set can be described thus: Metabolism by cytochrome P450 2D6 (CypExpress), HPLC. The format is in vitro ADME.

For data set [6], the target named is T2, CYP2D6. The description is as above. It is filed as in vitro ADME. The settings on record: 4 h. The method, then:
The enzymatic activity of cytochrome P450 2D6 (CYP2D6) was evaluated following the CypExpress protocol (C4982, Sigma Aldrich, Darmstadt, Germany). The reaction buffer consisted of 5 mM glucose-6-phosphate (G6P), 2 mM nicotinamide adenine dinucleotide phosphate (NADP+), and 3,4,5-TMBS prepared in PBS at concentrations of 1000 and 1500 µM. Diltiazem was used as a positive control. The reaction was initiated by adding CYP2D6, and the mixture was vortexed for 5 min. The samples were then incubated at 37 °C with gentle shaking at 100 rpm for 4 h. The reaction was terminated by adding acetonitrile, followed by centrifugation at 800 rpm for 10 min. The supernatant was collected and analyzed using HPLC.

SMILES strings stand for the structures. Values joined by “and” are separate entries in the source; they are usually repeats but may differ in a detail not shown here. Identical values can stand only once. “Also recorded” adds a separate entry of the source.

T2 sequence (P10635 whole entry): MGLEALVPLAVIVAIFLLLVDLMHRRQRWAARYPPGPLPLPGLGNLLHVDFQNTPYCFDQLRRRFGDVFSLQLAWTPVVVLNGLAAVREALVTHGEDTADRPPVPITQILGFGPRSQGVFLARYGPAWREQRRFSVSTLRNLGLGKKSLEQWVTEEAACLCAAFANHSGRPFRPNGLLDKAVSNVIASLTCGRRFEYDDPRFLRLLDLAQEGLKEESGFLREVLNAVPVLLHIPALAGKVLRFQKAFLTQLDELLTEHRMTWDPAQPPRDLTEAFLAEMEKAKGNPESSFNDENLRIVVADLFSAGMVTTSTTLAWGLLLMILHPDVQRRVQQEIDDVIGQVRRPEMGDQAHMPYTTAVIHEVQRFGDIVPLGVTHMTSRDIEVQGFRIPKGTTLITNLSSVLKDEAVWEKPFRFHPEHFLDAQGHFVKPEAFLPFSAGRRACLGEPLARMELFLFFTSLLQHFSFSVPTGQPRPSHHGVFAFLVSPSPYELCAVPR
Bovine Serum Albumin (BSA), sequence (P02769 25-607): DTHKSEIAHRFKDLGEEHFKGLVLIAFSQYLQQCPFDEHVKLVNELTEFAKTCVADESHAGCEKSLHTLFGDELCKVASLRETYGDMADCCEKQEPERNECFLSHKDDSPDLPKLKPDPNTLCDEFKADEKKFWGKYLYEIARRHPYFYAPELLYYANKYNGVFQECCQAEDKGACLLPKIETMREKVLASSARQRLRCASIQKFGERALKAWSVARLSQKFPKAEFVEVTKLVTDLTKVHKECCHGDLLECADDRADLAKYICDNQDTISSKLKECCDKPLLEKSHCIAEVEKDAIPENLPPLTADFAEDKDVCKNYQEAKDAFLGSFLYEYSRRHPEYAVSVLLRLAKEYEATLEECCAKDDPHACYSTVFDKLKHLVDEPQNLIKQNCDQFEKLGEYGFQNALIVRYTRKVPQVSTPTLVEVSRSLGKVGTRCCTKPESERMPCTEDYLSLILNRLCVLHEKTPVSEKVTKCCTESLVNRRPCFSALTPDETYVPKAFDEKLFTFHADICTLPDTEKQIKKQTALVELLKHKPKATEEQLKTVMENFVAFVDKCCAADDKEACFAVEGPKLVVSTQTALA

As to `NS(=O)(=O)c1cc(O)c(O)c(O)c1` [3,4,5-THBS, 3,4,5-trihydroxybenzenesulfonamide], the “FRAP value (antioxidant capacity)” value in data set [1] is “lower antioxidant activity compared to GA”. Besides, the “COX-2 inhibition compared to ibuprofen” value in data set [2] (1 µM) and in data set [2] (50 µM) was “inhibition levels similar to ibuprofen” each time.

Consider `COc1cc(S(N)(=O)=O)cc(OC)c1OC` [3,4,5-TMBS, 3,4,5-trimethoxybenzenesulfonamide], for which the “Anti-inflammatory activity (inhibition of protein denaturation) compared to ibuprofen” value in data set [3] is “significant increase in anti-inflammatory activity”. Also, the “FRAP value (antioxidant capacity)” value in data set [1] was “lower antioxidant activity compared to GA”. Besides, the “DPPH scavenging activity after CYP2D6 metabolism” value in data set [4] (1000 µM, after four hours) was 45%; in data set [4] (1000 µM, after three hours), 35%; in data set [4] (2000 µM, after three and four hours) it was “up to 61%”. In addition, the “COX-2 inhibition compared to ibuprofen” value was “no significant difference in COX-2 inhibition relative to ibuprofen” in data set [2] (1 µM) and “high COX-2 inhibition; also recorded: highly significant increase in inhibition” in data set [2] (50 µM). Further, the Metabolism by CYP2D6 (concentration) is 754 ± 35.5 µM in data set [5] (1000 µM, 1 h); 860.62 ± 0.71 µM in data set [5] (1000 µM, 3 h); 984 ± 161 µM in data set [5] (1500 µM, 1 h); 1241 ± 12.2 µM in data set [5] (1500 µM, 3 h); 833 ± 54.9 µM in data set [6] (1000 µM); 1248 ± 5.02 µM in data set [6] (1500 µM). In addition, the “Percentage metabolized by CYP2D6” value in data set [5] (1500 µM, one-hour time point) is 65% and 65.5%.
